Columns and labels:
Assay type in all cases: in vivo
[1] = test system: corn (Zea mays); experiment: Test A greenhouse herbicide test, pre- and postemergence; conditions: Postemergence; for Plant response rating, Corn: 125 g ai/ha, 0 to 100 scale where 0 is no effect and 100 is complete control; for Corn plant response rating: 500 g ai/ha, 0 to 100 scale, 0 is no effect, 100 is complete control
Method in brief: (§1)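 Seeds sown in loam–sand blend got a preemergence directed soil spray of compound in non-phytotoxic solvent with surfactant. Postemergence treatment was given at 2–10 cm, one- to two-leaf stage. After ~10 d in greenhouse, injury was rated visually vs untreated controls, 0 (no effect) to 100 (complete control).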

[2] = test system: foxtail, giant (giant foxtail, Setaria faberii); experiment: as above
Method in brief: as §1

[3] = test system: kochia (Kochia scoparia); experiment: as above
Method in brief: as §1

[4] = test system: pigweed (Amaranthus retroflexus); experiment: as above
Method in brief: as §1

[5] = test system: ragweed (common ragweed, Ambrosia elatior); experiment: as above
Method in brief: as §1

[6] = test system: ryegrass, Italian (Italian ryegrass, Lolium multiflorum); experiment: as above
Method in brief: as §1

[7] = test system: wheat (Triticum aestivum); experiment: as above; conditions: Postemergence; for Plant response rating, Wheat: 125 g ai/ha, 0 to 100 scale where 0 is no effect and 100 is complete control; for Wheat plant response rating: 500 g ai/ha, 0 to 100 scale, 0 is no effect, 100 is complete control
Method in brief: as §1

[8] = test system: galium (catchweed bedstraw, Galium aparine); experiment: Test C greenhouse herbicide test, pre- and postemergence
Method in brief: (§2)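 Preemergence: seeds sown in a loam soil–sand blend and sprayed with test chemicals in a non-phytotoxic solvent mixture containing surfactant. Postemergence: plants grown in peat-based medium and treated at 2 to 18 cm (1- to 4-leaf stage). After 13 to 15 d in a greenhouse, injury was visually rated 0–100 against controls.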

[9] = test system: nutsedge, yellow (yellow nutsedge, Cyperus esculentus); experiment: as above
Method in brief: as §2

[10] = test system: oilseed rape (Brassica napus); experiment: as above
Method in brief: as §2

[11] = test system: velvetleaf (Abutilon theophrasti); experiment: as above
Method in brief: as §2

[12] = Postemergence, 125 g ai/ha, 0 to 100 scale where 0 is no effect and 100 is complete control
[13] = Postemergence, 500 g ai/ha, 0 to 100 scale, 0 is no effect, 100 is complete control
[14] = Preemergence, 125 g ai/ha, 0 to 100 scale where 0 is no effect and 100 is complete control
[15] = Preemergence, 500 g ai/ha, 0 to 100 scale, 0 no effect, 100 complete control
[16] = Postemergence, 31 g ai/ha, 0 to 100 scale (0 no effect, 100 complete control)
[17] = Postemergence, 125 g ai/ha, scale 0 to 100, 0 is no effect, 100 is complete control
[18] = Postemergence, 250 g ai/ha, scale 0 to 100, 0 no effect, 100 complete control, 13 to 15 d
[19] = postemergence, 62 g ai/ha, scale 0 to 100, 0 no effect, 100 complete control
[20] = Preemergence, 31 g ai/ha, scale 0 to 100, 0 is no effect, 100 is complete control
[21] = Preemergence, 62 g ai/ha, scale 0 to 100, 0 is no effect, 100 is complete control
[22] = Preemergence, 125 g ai/ha, scale 0 to 100, 0 is no effect, 100 is complete control
[23] = Preemergence, 250 g ai/ha, scale 0 to 100 (0 no effect, 100 complete control)
[24] = Preemergence, 500 g ai/ha, 0 to 100 scale where 0 is no effect and 100 is complete control

Cc1nn(C)c(=O)c(-c2c(C)sc3ccccc23)c1O [Compound 65]
Plant response rating, Corn [1]: 0 | Corn plant response rating [1]: 0 | Plant response rating, Foxtail, Giant [2, 12]: 20 | Foxtail, Giant plant response rating [2, 13]: 90 | Foxtail, Giant plant response rating [2, 14]: 60 | Plant response rating, Foxtail, Giant [2, 15]: 90 | Plant response rating, Kochia [3, 12]: 90 | Kochia plant response rating [3, 13]: 90 | Kochia plant response rating [3, 14]: 60 | Plant response rating, Kochia [3, 15]: 90 | Plant response rating, Pigweed [4, 12]: 80 | Pigweed plant response rating [4, 13]: 90 | Pigweed plant response rating [4, 14]: 100 | Plant response rating, Pigweed [4, 15]: 100 | Plant response rating, Ragweed [5, 12]: 50 | Ragweed plant response rating [5, 13]: 90 | Ragweed plant response rating [5, 14]: 70 | Plant response rating, Ragweed [5, 15]: 80 | Plant response rating, Ryegrass, Italian [6, 12]: 90 | Ryegrass, Italian plant response rating [6, 13]: 100 | Ryegrass, Italian plant response rating [6, 14]: 90 | Plant response rating, Ryegrass, Italian [6, 15]: 100 | Plant response rating, Wheat [7]: 0 | Wheat plant response rating [7]: 0 | Galium plant response rating [8, 16]: 85 | Plant response rating, Galium [8, 17]: 90 | Plant response rating, Galium [8, 18]: 90 | Galium plant response rating [8, 19]: 85 | Nutsedge, Yellow plant response rating [9, 16]: 25 | Plant response rating, Nutsedge, Yellow [9, 17]: 60 | Plant response rating, Nutsedge, Yellow [9, 18]: 65 | Nutsedge, Yellow plant response rating [9, 19]: 50 | Oilseed Rape plant response rating [10, 16]: 0 | Plant response rating, Oilseed Rape [10, 17]: 0 | Plant response rating, Oilseed Rape [10, 18]: 5 | Oilseed Rape plant response rating [10, 19]: 0 | Velvetleaf plant response rating [11, 16]: 10 | Plant response rating, Velvetleaf [11, 17]: 65 | Plant response rating, Velvetleaf [11, 18]: 75 | Velvetleaf plant response rating [11, 19]: 20

Cc1cc(C)c2sc(C)c(-c3c(OC(=O)OC(C)C)c(C)nn(C)c3=O)c2c1 [Compound 67]
Plant response rating, Corn [1]: 0 | Corn plant response rating [1]: 0 | Plant response rating, Foxtail, Giant [2, 12]: 80 | Foxtail, Giant plant response rating [2, 13]: 90 | Foxtail, Giant plant response rating [2, 14]: 80 | Plant response rating, Foxtail, Giant [2, 15]: 100 | Plant response rating, Kochia [3, 12]: 20 | Kochia plant response rating [3, 13]: 30 | Kochia plant response rating [3, 14]: 20 | Plant response rating, Kochia [3, 15]: 20 | Plant response rating, Pigweed [4, 12]: 20 | Pigweed plant response rating [4, 13]: 20 | Pigweed plant response rating [4, 14]: 90 | Plant response rating, Pigweed [4, 15]: 100 | Plant response rating, Ragweed [5, 12]: 50 | Ragweed plant response rating [5, 13]: 70 | Ragweed plant response rating [5, 14]: 80 | Plant response rating, Ragweed [5, 15]: 80 | Plant response rating, Ryegrass, Italian [6, 12]: 70 | Ryegrass, Italian plant response rating [6, 13]: 90 | Ryegrass, Italian plant response rating [6, 14]: 90 | Plant response rating, Ryegrass, Italian [6, 15]: 100 | Plant response rating, Wheat [7]: 0 | Wheat plant response rating [7]: 0 | Galium plant response rating [8, 16]: 90 | Plant response rating, Galium [8, 17]: 95 | Plant response rating, Galium [8, 18]: 90 | Plant response rating, Galium [8, 20]: 70 | Plant response rating, Galium [8, 21]: 90 | Plant response rating, Galium [8, 22]: 90 | Galium plant response rating [8, 23]: 90 | Galium plant response rating [8, 19]: 95 | Nutsedge, Yellow plant response rating [9, 16]: 65 | Plant response rating, Nutsedge, Yellow [9, 17]: 80 | Plant response rating, Nutsedge, Yellow [9, 18]: 85 | Plant response rating, Nutsedge, Yellow [9, 20]: 10 | Plant response rating, Nutsedge, Yellow [9, 21]: 20 | Plant response rating, Nutsedge, Yellow [9, 22]: 55 | Nutsedge, Yellow plant response rating [9, 23]: 70 | Nutsedge, Yellow plant response rating [9, 19]: 70 | Oilseed Rape plant response rating [10, 16]: 40 | Plant response rating, Oilseed Rape [10, 17]: 75 | Plant response rating, Oilseed Rape [10, 18]: 75 | Plant response rating, Oilseed Rape [10, 20]: 0 | Plant response rating, Oilseed Rape [10, 21]: 0 | Plant response rating, Oilseed Rape [10, 22]: 0 | Oilseed Rape plant response rating [10, 23]: 20 | Oilseed Rape plant response rating [10, 19]: 50 | Velvetleaf plant response rating [11, 16]: 70 | Plant response rating, Velvetleaf [11, 17]: 85 | Plant response rating, Velvetleaf [11, 18]: 98 | Plant response rating, Velvetleaf [11, 20]: 10 | Plant response rating, Velvetleaf [11, 21]: 35 | Plant response rating, Velvetleaf [11, 22]: 60 | Velvetleaf plant response rating [11, 23]: 75 | Velvetleaf plant response rating [11, 19]: 85

CCOC(=O)Oc1c(C)nn(C)c(=O)c1-c1c(C)ccc2ccccc12 [Compound 73]
Plant response rating, Corn [1]: 20 | Corn plant response rating [1]: 60 | Plant response rating, Foxtail, Giant [2, 12]: 90 | Foxtail, Giant plant response rating [2, 13]: 100 | Foxtail, Giant plant response rating [2, 14]: 90 | Plant response rating, Foxtail, Giant [2, 24]: 100 | Plant response rating, Kochia [3, 12]: 90 | Kochia plant response rating [3, 13]: 100 | Kochia plant response rating [3, 14]: 50 | Plant response rating, Kochia [3, 24]: 100 | Plant response rating, Pigweed [4, 12]: 100 | Pigweed plant response rating [4, 13]: 100 | Pigweed plant response rating [4, 14]: 100 | Plant response rating, Pigweed [4, 24]: 100 | Plant response rating, Ragweed [5, 12]: 90 | Ragweed plant response rating [5, 13]: 100 | Ragweed plant response rating [5, 14]: 90 | Plant response rating, Ragweed [5, 24]: 90 | Plant response rating, Ryegrass, Italian [6, 12]: 100 | Ryegrass, Italian plant response rating [6, 13]: 100 | Ryegrass, Italian plant response rating [6, 14]: 100 | Plant response rating, Ryegrass, Italian [6, 24]: 100 | Plant response rating, Wheat [7]: 40 | Wheat plant response rating [7]: 90 | Galium plant response rating [8, 16]: 90 | Plant response rating, Galium [8, 17]: 95 | Plant response rating, Galium [8, 18]: 95 | Plant response rating, Galium [8, 20]: 90 | Plant response rating, Galium [8, 21]: 98 | Plant response rating, Galium [8, 22]: 95 | Galium plant response rating [8, 23]: 98 | Galium plant response rating [8, 19]: 90 | Nutsedge, Yellow plant response rating [9, 16]: 80 | Plant response rating, Nutsedge, Yellow [9, 17]: 80 | Plant response rating, Nutsedge, Yellow [9, 18]: 90 | Plant response rating, Nutsedge, Yellow [9, 20]: 0 | Plant response rating, Nutsedge, Yellow [9, 21]: 35 | Plant response rating, Nutsedge, Yellow [9, 22]: 50 | Nutsedge, Yellow plant response rating [9, 23]: 95 | Nutsedge, Yellow plant response rating [9, 19]: 80 | Oilseed Rape plant response rating [10, 16]: 10 | Plant response rating, Oilseed Rape [10, 17]: 70 | Plant response rating, Oilseed Rape [10, 18]: 85 | Plant response rating, Oilseed Rape [10, 20]: 90 | Plant response rating, Oilseed Rape [10, 21]: 85 | Plant response rating, Oilseed Rape [10, 22]: 90 | Oilseed Rape plant response rating [10, 23]: 85 | Oilseed Rape plant response rating [10, 19]: 70 | Velvetleaf plant response rating [11, 16]: 40 | Plant response rating, Velvetleaf [11, 17]: 85 | Plant response rating, Velvetleaf [11, 18]: 90 | Plant response rating, Velvetleaf [11, 20]: 25 | Plant response rating, Velvetleaf [11, 21]: 80 | Plant response rating, Velvetleaf [11, 22]: 85 | Velvetleaf plant response rating [11, 23]: 85 | Velvetleaf plant response rating [11, 19]: 85

Reference: US10597388B2, “Pyridazinone herbicides” (FMC CORPORATION, priority 2014, dated 2020)
